The values that follow come from patent US9840509B2, “Heterocyclic compounds” (CADILA HEALTHCARE LIMITED, priority 2014, dated 2017).

Structures are written as SMILES.

Series [1] concerns the target T1, recombinant purified human BTK (Homo sapiens, UniProt Q06187).
T1 construct: purchased SignalChem, USA
Put plainly: In vitro BTK kinase assay on ADP Glo platform. In kind it is biochemical. As to conditions: 2 hr room temperature, read-out: In-vitro BTK inhibitory activity: IC50. On the procedure: Testing of Compounds of the Invention Biological Studies: In vitro BTK Inhibitory Activity Assay:
In vitro BTK inhibitory activity of test compounds were screened using BTK kinase assay on ADP Glo platform (Li, H., Totoritis, R. D., Lor, L. A., Schwartz, B., Caprioli, P., Jurewicz, A. J and Zhang, G., Assay Drug Dev. Technol., 2009, 7(6), 598-605). Briefly, fixed amount of recombinant purified human BTK (3 ng/reaction from SignalChem, USA) were incubated with increasing concentration of test compounds, in 1× kinase reaction buffer (40 mM Tris-Cl, pH7.5, 20 mM MgCl2, 2 mM MnCl2, 0.1 mg/ml BSA and 50 μM DTT). Enzymatic reaction was initiated by adding a substrate cocktail containing 50 µM of ATP (final concentration) and […] of polyGln4Tyr1 (Signal Chem) in total 25 μl of reaction, in round bottom white 96 well plate. The reaction mixture was incubated at room temperature for 2 hr. After 2 hr of incubation, 10 μl of the reaction mix was mixed with […] of ADP Glo reagent, in another round bottom white 96 well plate and incubated at room temperature for 40 min. This was followed by addition of kinase detection reagent (20 μl per reaction) and incubation at room temperature for 30 min. Finally, plate was read for luminescence at an integration time of 500 millisecond per well. Data were plotted taking Enzyme with no inhibitor set as the 100% kinase activity and for dose response curve, % Kinase activity was plotted against conc on Log scale and IC50 was determined by non linear curve fitting method using GraphPad Prism software 6. The in vitro BTK inhibitory activity (IC50) for representative compounds are listed in […]

The target in series [2] is T2, CYP 1A2 (Homo sapiens, UniProt P05177).
T2 construct: from tissue; host or cells: human liver microsomes
T2 sequence (P05177 1-516): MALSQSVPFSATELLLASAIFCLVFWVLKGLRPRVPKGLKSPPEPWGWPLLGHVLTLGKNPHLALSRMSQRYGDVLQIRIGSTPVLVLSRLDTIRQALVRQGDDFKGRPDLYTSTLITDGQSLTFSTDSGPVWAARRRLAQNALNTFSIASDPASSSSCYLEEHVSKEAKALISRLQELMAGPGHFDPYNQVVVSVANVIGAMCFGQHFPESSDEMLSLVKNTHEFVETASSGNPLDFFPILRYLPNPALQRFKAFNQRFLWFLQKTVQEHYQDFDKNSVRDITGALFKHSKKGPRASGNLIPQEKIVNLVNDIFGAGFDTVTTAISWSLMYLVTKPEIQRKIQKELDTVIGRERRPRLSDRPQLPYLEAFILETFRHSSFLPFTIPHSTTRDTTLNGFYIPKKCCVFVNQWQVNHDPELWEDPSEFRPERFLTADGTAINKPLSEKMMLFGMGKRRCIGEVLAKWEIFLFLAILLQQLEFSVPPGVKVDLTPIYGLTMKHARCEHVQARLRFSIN
Briefly: CYP inhibition in human liver microsomes, 1A2. In kind it is in vitro ADME. As to conditions: pH 7.4, @ 10 μM concn. How it is done: (§1) CYP Inhibition Studies: CYP inhibition studies were performed with test compounds, at two concentrations ([…] and 10 μM), using human liver microsomes (Yao, M., Zhu, M., Sinz, M. W., Zhang, H., Humphreys, W. F., Rodrigues, A. D and Dai, R., Journal of Pharmaceutical and Biomedical Analysis, 2007, 44, 211-223; Walsky, R. L and Obach, R. S., Drug Metab. Dispos., 2004, 32, 647-660). Human liver microsomes were mixed with 100 mM phosphate buffer (pH 7.4) and probe substrate and warmed to […] in microcentrifuge tubes. Aliquots of this mixture (499 μL) were transferred to each pre-labeled microcentrifuge tubes, followed by addition of the 1 μL of inhibitors (test compound/CYP-specific positive control inhibitor) or control solvent (DMSO). Aliquots of this mixture (90 μL) were transferred to each pre-labeled microcentrifuge tubes in duplicate. Final solvent concentrations were 0.2% (v/v) or less. Incubations were commenced with the addition of 10 μL NADPH stock (assay concentration, 1 mM) to a final incubation volume of 100 μL and incubated in shaking water bath (at 37° C. and 100 rpm), for the period defined in Tables 1. Incubations were terminated by addition of 400 μL of termination solvent (CH3CN) containing internal standard. The terminated samples were vortex-mixed, centrifuged at 10000 rpm for 5 min and supernatant transferred into HPLC vials for LC-MS/MS analysis to monitor metabolites produced by marker CYP reactions. […] Animals
A general note: Liver microsomes are a subcellular fraction often used to study metabolism.

The target in series [3] is T3, CYP 2C8 (Homo sapiens, UniProt P10632).
T3 construct: from tissue; host or cells: human liver microsomes
T3 sequence (P10632 1-490): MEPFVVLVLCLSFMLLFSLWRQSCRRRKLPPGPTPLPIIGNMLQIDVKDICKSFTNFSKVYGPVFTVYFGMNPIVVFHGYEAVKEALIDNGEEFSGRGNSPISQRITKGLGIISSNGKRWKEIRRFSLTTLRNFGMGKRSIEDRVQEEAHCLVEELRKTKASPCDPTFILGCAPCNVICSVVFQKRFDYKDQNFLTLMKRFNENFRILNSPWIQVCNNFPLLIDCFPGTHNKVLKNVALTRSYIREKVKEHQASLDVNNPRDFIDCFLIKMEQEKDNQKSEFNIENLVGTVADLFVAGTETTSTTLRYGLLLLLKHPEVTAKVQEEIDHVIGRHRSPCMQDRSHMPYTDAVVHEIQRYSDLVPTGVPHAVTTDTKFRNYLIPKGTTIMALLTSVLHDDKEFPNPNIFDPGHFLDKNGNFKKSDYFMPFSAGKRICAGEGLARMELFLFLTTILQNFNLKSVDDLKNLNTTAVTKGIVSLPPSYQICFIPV
Put plainly: CYP inhibition in human liver microsomes, 2C8. The class given is in vitro ADME. The following applies: pH 7.4, @ 10 μM concn. On the procedure: as §1

The target in series [4] is T4, CYP 2C9 (Homo sapiens, UniProt P11712).
T4 construct: from tissue; host or cells: human liver microsomes
T4 sequence (P11712 whole entry): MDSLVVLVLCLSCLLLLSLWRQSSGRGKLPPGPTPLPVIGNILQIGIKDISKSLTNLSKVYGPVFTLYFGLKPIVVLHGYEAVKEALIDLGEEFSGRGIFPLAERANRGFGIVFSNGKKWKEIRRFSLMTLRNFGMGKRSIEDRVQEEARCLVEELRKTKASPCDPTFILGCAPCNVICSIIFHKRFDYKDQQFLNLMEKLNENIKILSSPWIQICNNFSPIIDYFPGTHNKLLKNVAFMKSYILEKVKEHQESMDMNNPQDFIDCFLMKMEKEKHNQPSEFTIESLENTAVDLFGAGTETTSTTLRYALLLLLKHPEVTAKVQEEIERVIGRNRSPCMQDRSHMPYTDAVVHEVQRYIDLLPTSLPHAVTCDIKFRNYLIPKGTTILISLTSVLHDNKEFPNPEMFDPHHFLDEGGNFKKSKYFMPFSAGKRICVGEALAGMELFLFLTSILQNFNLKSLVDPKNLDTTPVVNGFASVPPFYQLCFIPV
Put plainly: CYP inhibition in human liver microsomes, 2C9. The following applies: pH 7.4, @ 10 μM concn. In kind it is in vitro ADME. How it is done: as §1

The target in series [5] is T5, CYP 2C19 (Homo sapiens, UniProt P33261).
T5 construct: from tissue; host or cells: human liver microsomes
T5 sequence (P33261 whole entry): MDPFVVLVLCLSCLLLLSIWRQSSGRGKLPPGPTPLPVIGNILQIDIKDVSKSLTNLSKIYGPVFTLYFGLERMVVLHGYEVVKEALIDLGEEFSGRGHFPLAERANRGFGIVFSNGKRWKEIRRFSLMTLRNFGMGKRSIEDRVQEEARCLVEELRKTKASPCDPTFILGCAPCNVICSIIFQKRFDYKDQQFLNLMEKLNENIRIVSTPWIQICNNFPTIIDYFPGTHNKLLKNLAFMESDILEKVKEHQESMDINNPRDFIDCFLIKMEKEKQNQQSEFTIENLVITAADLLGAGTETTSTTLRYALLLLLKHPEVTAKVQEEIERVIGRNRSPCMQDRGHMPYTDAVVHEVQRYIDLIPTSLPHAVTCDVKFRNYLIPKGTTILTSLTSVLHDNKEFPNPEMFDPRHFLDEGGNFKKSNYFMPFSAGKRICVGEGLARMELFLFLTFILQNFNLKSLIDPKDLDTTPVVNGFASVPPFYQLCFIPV
Put plainly: CYP inhibition in human liver microsomes, 2C19. The following applies: pH 7.4, @ 10 μM concn. In kind it is in vitro ADME. On the procedure:
as §1

Series [6] has as its target T6, CYP 2D6 (Homo sapiens, UniProt P10635).
T6 construct: from tissue; host or cells: human liver microsomes
Put plainly: CYP inhibition in human liver microsomes, 2D6. In kind it is in vitro ADME. As to conditions: pH 7.4, @ 10 μM concn. On the procedure: as §1

The target in series [7] is T7, CYP 3A4 (Homo sapiens, UniProt P08684).
T7 construct: from tissue; host or cells: human liver microsomes
T7 sequence (P08684 whole entry): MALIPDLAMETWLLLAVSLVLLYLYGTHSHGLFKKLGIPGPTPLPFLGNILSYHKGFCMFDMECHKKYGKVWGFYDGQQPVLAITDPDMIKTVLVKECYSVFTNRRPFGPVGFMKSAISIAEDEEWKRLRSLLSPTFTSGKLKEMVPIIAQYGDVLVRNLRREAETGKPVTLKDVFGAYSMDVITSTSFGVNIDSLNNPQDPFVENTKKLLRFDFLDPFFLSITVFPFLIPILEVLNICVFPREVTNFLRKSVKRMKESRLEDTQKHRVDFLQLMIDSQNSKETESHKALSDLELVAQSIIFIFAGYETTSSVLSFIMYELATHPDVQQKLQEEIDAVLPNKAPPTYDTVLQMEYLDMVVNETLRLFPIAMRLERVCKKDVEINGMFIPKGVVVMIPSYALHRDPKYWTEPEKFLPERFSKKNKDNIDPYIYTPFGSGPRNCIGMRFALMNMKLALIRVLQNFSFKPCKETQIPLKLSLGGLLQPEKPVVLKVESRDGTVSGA
Put plainly: CYP inhibition in human liver microsomes, 3A4. In kind it is in vitro ADME. As to conditions: pH 7.4, @ 10 μM concn. On the procedure:
as §1

T6 sequence (P10635 whole entry): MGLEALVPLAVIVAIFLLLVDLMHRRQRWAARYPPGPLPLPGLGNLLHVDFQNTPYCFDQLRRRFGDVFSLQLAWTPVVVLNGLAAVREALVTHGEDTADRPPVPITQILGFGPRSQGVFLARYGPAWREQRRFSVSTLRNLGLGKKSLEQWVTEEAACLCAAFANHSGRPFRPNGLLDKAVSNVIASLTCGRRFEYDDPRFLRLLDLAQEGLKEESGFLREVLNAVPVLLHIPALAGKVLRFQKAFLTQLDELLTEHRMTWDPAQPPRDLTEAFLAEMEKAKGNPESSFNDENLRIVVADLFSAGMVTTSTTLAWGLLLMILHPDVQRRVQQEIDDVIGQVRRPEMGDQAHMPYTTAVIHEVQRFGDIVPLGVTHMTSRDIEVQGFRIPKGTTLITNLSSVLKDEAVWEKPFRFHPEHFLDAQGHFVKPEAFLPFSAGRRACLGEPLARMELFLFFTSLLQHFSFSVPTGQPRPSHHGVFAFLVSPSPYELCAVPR
T1 sequence (Q06187 whole entry): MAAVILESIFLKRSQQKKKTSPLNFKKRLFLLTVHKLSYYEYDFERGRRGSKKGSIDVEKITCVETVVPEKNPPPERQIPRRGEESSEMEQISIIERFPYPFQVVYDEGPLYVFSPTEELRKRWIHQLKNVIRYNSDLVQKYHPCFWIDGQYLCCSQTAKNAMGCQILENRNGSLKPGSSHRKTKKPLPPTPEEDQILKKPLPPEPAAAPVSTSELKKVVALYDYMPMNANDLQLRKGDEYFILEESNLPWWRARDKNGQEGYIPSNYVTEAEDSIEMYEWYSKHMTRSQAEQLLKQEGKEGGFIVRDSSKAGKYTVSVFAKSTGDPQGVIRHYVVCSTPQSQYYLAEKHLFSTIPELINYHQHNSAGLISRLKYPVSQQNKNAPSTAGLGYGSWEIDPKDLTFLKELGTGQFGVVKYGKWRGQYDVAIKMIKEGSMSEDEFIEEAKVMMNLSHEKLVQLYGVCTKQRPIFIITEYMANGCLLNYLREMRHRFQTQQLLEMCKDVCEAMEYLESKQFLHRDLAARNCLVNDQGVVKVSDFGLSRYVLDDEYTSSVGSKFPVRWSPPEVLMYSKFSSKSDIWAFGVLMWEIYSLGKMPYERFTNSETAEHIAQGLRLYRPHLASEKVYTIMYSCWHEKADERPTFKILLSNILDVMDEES

As for `C=CC(=O)N1CC2CC(n3nc(-c4ccc5ocnc5c4)c4c(N)ncnc43)CC2C1` (stereo not drawn) [Compound 22, 1-(5-(4-amino-3-(benzo[d]oxazol-5-yl)-1H-pyrazolo[3,4-d]pyrimidin-1-yl)hexahydrocyclopenta[c]pyrrol-2(1H)-yl)prop-2-en-1-one], the IC50 – broadly, the concentration that inhibits the measured activity by half – in series [1] worked out at 40 nM. For the same compound, the inhibition (commonly the drop in the measured response relative to a control, in per cent) at 10 μM in series [2] was < 50%; in series [3], < 50%; in series [4], < 50%; in series [5] it was < 50%; in series [6] it was > 50%; in series [7] it was < 50%.
Regarding `C=CC(=O)N1CC2CC(n3nc(-c4ccc5ncoc5c4)c4c(N)ncnc43)CC2C1` (stereo not drawn) [Compound 17, 1-(5-(4-amino-3-(benzo[d]oxazol-6-yl)-1H-pyrazolo[3,4-d]pyrimidin-1-yl)hexahydrocyclopenta[c]pyrrol-2(1H)-yl)prop-2-en-1-one], in series [1], the IC50 amounted to 5 nM. The inhibition at 10 μM is < 50% in series [2]; < 50% in series [3]; < 50% in series [4]; < 50% in series [5]; < 50% in series [6]; > 50% in series [7].
In the case of `C=CS(=O)(=O)N1CC2CC(n3c(=O)n(-c4ccc(Oc5ccccc5)cc4)c4c(N)ncnc43)CC2C1` (stereo not drawn) [Compound 33, 6-amino-7-(4-phenoxyphenyl)-9-(2-(vinylsulfonyl)octahydrocyclopenta[c]pyrrol-5-yl)-7H-purin-8(9H)-one], in series [1], the IC50 worked out at 1.5 nM. For the same compound, the inhibition at 10 μM in series [2], in series [3], in series [4], in series [5], in series [6] and in series [7] was < 50% in each case.
As to `C=CC(=O)N1CC2CC(n3nc(-c4ccc5nc(-c6ccccc6)sc5c4)c4c(N)ncnc43)CC2C1` (stereo not drawn) [Compound 14, 1-(5-(4-amino-3-(2-phenylbenzo[d]thiazol-6-yl)-1H-pyrazolo[3,4-d]pyrimidin-1-yl)hexahydrocyclopenta[c]pyrrol-2(1H)-yl)prop-2-en-1-one], in series [1], the IC50 was 1.4 nM. The inhibition at 10 μM in series [2], in series [3], in series [4], in series [5], in series [6] and in series [7] was < 50% each time.
`C=CC(=O)N1CC2CC(n3nc(-c4ccc(Oc5ccccc5)c(OC)c4)c4c(N)ncnc43)CC2C1` (stereo not drawn) [Compound 12, 1-(5-(4-amino-3-(3-methoxy-4-phenoxyphenyl)-1H-pyrazolo[3,4-d]pyrimidin-1-yl)hexahydrocyclopenta[c]pyrrol-2(1H)-yl)prop-2-en-1-one]: the IC50 in series [1] was determined as 37 nM. Also, the inhibition at 10 μM is < 50% in series [2]; > 50% in series [3]; > 50% in series [4]; < 50% in series [5]; < 50% in series [6]; > 50% in series [7].
For the compound `C#CC(=O)N1CC2CC(n3nc(-c4ccc(Oc5ccccc5)cc4)c4c(N)ncnc43)CC2C1` (stereo not drawn) [Compound 11, 1-(5-(4-amino-3-(4-phenoxyphenyl)-1H-pyrazolo[3,4-d]pyrimidin-1-yl)hexahydrocyclopenta[c]pyrrol-2(1H)-yl)prop-2-yn-1-one], the concentration for half-maximal inhibition (IC50) in series [1] was found to be 13 nM. Besides, the inhibition at 10 μM in series [2], in series [3], in series [4], in series [5], in series [6] and in series [7] was < 50% throughout.
Take `C=CC(=O)N1CC2CC(n3nc(-c4ccc(C(=O)Nc5ccccn5)cc4)c4c(N)ncnc43)CC2C1` (stereo not drawn) [Compound 13, 4-(1-(2-acryloyloctahydrocyclopenta[c]pyrrol-5-yl)-4-amino-1H-pyrazolo[3,4-d]pyrimidin-3-yl)-N-(pyridin-2-yl)benzamide]: the IC50 in series [1] was 1.8 nM. For the same compound, the inhibition at 10 μM in series [2] was < 50%; in series [3], < 50%; in series [4] it was < 50%; in series [5], > 50%; in series [6], < 50%; in series [7], < 50%.
As to `CN(C)C/C=C/C(=O)N1CC2CC(n3nc(-c4ccc(C(=O)Nc5cnccn5)cc4)c4c(N)ncnc43)CC2C1` (stereo not drawn) [Compound 49, (E)-4-(4-amino-1-(2-(4-(dimethylamino)but-2-enoyl)octahydrocyclopenta [c]pyrrol-5-yl)-1H-pyrazolo[3,4-d]pyrimidin-3-yl)-N-(pyrazin-2-yl)benzamide], the IC50 in series [1] amounted to 2.5 nM. Besides, the inhibition at 10 μM in series [2], in series [3], in series [4], in series [5], in series [6] and in series [7] was < 50% in each case.
Take `C=CC(=O)N1CC2CC(n3nc(-c4ccc5sccc5c4)c4c(N)ncnc43)CC2C1` (stereo not drawn) [Compound 6, 1-(5-(4-amino-3-(benzo[b]thiophen-5-yl)-1H-pyrazolo[3,4-d]pyrimidin-1-yl)hexahydrocyclopenta[c]pyrrol-2(1H)-yl)prop-2-en-1-one]: the IC50 in series [1] is 1.7 nM. Further, the inhibition at 10 μM in series [2], in series [3], in series [4], in series [5], in series [6] and in series [7] was < 50% in each case.
